According to EPA's ToxRefDB 2:

Assays:
rat [1] = conditions: Prenatal developmental toxicity study, sprague dawley, Oral, Gavage/Intubation, dose end: 18 GD
dog [2] = conditions: Sub-acute repeat dose toxicity; beagle; Oral; Gavage/Intubation; dose end: 30 day; group: systemic; systemic / in life observation / body weight / body weight gain + systemic / organ weight / liver / absolute + systemic / organ weight / …
dog [3] = conditions: Chronic toxicity, beagle, Oral, Gavage/Intubation, dose end: 363 day, group: systemic
primate = conditions: Sub-acute repeat dose toxicity; Oral; Gavage/Intubation; dose end: 6 day; group: systemic; systemic / in life observation / clinical signs / arrhythmia + systemic / in life observation / clinical signs / emesis + systemic / in life…
rat [4] = conditions: Chronic toxicity; sprague dawley; Oral; Gavage/Intubation; dose end: 181 day; group: systemic; systemic / in life observation / body weight / body weight gain + systemic / hematology / reticulocyte / reticulocyte + systemic / pathology…
rat [5] = conditions: Sub-acute repeat dose toxicity; sprague dawley; Oral; Feed; dose end: 15 day; group: systemic; systemic / in life observation / body weight / body weight + systemic / in life observation / food consumption / food consumption
mouse [6] = conditions: Subchronic oral toxicity in rodents, Gavage/Intubation, dose end: 91 day, group: systemic, systemic / in life observation / body weight / body weight gain + systemic / organ weight / heart / absolute + systemic / organ weight / …
rat [7] = conditions: Sub-acute repeat dose toxicity, sprague dawley, Oral, Gavage/Intubation, dose end: 28 day, group: systemic
mouse [8] = conditions: Sub-acute repeat dose toxicity; Oral; Gavage/Intubation; dose end: 29 day; group: systemic; systemic / clinical chemistry / glucose / glucose + systemic / clinical chemistry / urea nitrogen / urea + systemic / hematology / leukocyte…
rabbit [9] = conditions: Sub-acute repeat dose toxicity; Oral; Gavage/Intubation; dose end: 5 day; group: systemic; systemic / in life observation / body weight / body weight + systemic / in life observation / clinical signs / [other] + systemic / in life …
rat [10] = conditions: Multigenerational reproductive toxicity study, sprague dawley, Oral, Feed, dose end: 2 generation
rat [11] = conditions: Subchronic oral toxicity in rodents, other, Feed, dose end: 13 week
rat [12] = conditions: Combined chronic toxicity/carcinogenicity, sprague dawley, Oral, Feed, dose end: 104 week, group: systemic
mouse [13] = conditions: Subchronic oral toxicity in rodents, cd1, Feed, dose end: 13 week, group: systemic
rabbit [14] = conditions: Prenatal developmental toxicity study, himalayan, Dermal, Topical, dose end: 19 GD
rat [15] = conditions: Prenatal developmental toxicity study, sprague dawley, Oral, Gavage/Intubation, dose end: 15 GD
dog [16] = conditions: Subchronic oral toxicity in nonrodent, beagle, Capsule, dose end: 13 week, group: systemic
dog [17] = conditions: Chronic toxicity; beagle; Oral; Capsule; dose end: 1 year; group: systemic; systemic / in life observation / body weight / body weight gain + systemic / in life observation / clinical signs / emesis + systemic / in …
dog [18] = conditions: Chronic toxicity; beagle; Oral; Capsule; dose end: 1 year; group: systemic; systemic / in life observation / body weight / body weight gain + systemic / in life observation / clinical signs / emesis + systemic / in …; remark: listed apart in the source
mouse [19] = conditions: Carcinogenicity, cd1, Oral, Feed, dose end: 78 week, group: systemic
[20] = group: developmental, developmental / developmental malformation / bone / full supernumerary
[21] = group: maternal, systemic / in life observation / body weight / body weight + systemic / in life observation / food consumption / food consumption
[22] = systemic / in life observation / body weight / body weight gain + systemic / organ weight / liver / absolute + systemic / pathology …
[23] = systemic / organ weight / kidney / absolute + systemic / clinical chemistry / alkaline phosphatase (alp/alk) / alkaline phosphatase (alp/alk…
[24] = systemic / in life observation / body weight / body weight gain + systemic / in life observation / food consumption / food consumption
[25] = systemic / in life observation / body weight / body weight gain + systemic / in life observation / food consumption / food consumption + …
[26] = group: offspring, systemic / in life observation / body weight / offspring (pup) weight
[27] = group: parental, systemic / in life observation / body weight / body weight + systemic / in life observation / body weight / body weight gain + systemic / in…
[28] = group: cholinesterase, cholinesterase / cholinesterase / cholinesterase / cholinesterase (che)
[29] = group: systemic, systemic / clinical chemistry / urea nitrogen / urea nitrogen
[30] = systemic / clinical chemistry / alanine aminotransferase (alt/sgpt) / alanine aminotransferase (alt/sgpt) + systemic / in life observation…
[31] = systemic / clinical chemistry / glucose / glucose
[32] = group: developmental, developmental / developmental malformation / bone / incomplete ossification
[33] = group: maternal, systemic / in life observation / clinical signs / erythema + systemic / in life observation / clinical signs / scabbing + systemic / …
[34] = group: developmental, developmental / developmental malformation / bone / incomplete ossification + systemic / in life observation / body weight / fetal weight
[35] = group: maternal, systemic / in life observation / body weight / body weight gain + systemic / in life observation / food consumption / food consumption
[36] = group: maternal, systemic / in life observation / body weight / body weight gain + systemic / in life observation / food consumption / food consumption + …
[37] = systemic / in life observation / body weight / body weight gain + systemic / in life observation / clinical signs / emesis + systemic / in …
[38] = systemic / in life observation / clinical signs / soft stools + systemic / in life observation / food consumption / food consumption
[39] = systemic / in life observation / body weight / body weight gain + systemic / in life observation / food consumption / food efficiency + …
[40] = systemic / organ weight / brain / relative to body weight

CN1N=C2CCN(C(=O)[C@@H](COCc3ccccc3)NC(=O)C(C)(C)N)C[C@@]2(Cc2ccccc2)C1=O [Capromorelin]
LOAEL (rat [1]; [20]): > 75 mg/kg/day | NEL (rat [1]; [20]): < 1 mg/kg/day | NOAEL (rat [1]; [20]): ≥ 75 mg/kg/day | LOAEL (rat [1]; [21]): > 75 mg/kg/day | NOAEL (rat [1]; [21]): ≥ 75 mg/kg/day | LEL (dog [2]): 40 mg/kg/day | LOAEL (dog [2]): > 40 mg/kg/day | NEL (dog [2]): 7 mg/kg/day | NOAEL (dog [2]): ≥ 40 mg/kg/day | LEL (dog [3]; [22]): 7 mg/kg/day | NEL (dog [3]; [22]): < 7 mg/kg/day | LOAEL (dog [3]; [23]): > 40 mg/kg/day | NOAEL (dog [3]; [23]): ≥ 40 mg/kg/day | LEL (primate): 1 mg/kg/day | LOAEL (primate): > 3 mg/kg/day | NEL (primate): < 1 mg/kg/day | NOAEL (primate): ≥ 3 mg/kg/day | LEL (rat [4]): 1 mg/kg/day | LOAEL (rat [4]): > 75 mg/kg/day | NEL (rat [4]): < 1 mg/kg/day | NOAEL (rat [4]): ≥ 75 mg/kg/day | LEL (rat [5]): 1200 mg/kg/day | LOAEL (rat [5]): > 1200 mg/kg/day | NOAEL (rat [5]): ≥ 1200 mg/kg/day | LEL (mouse [6]): 30 mg/kg/day | LOAEL (mouse [6]): > 300 mg/kg/day | NEL (mouse [6]): < 30 mg/kg/day | NOAEL (mouse [6]): ≥ 300 mg/kg/day | LEL (rat [7]; [24]): 1 mg/kg/day | NEL (rat [7]; [24]): < 1 mg/kg/day | LOAEL (rat [7]; [25]): > 75 mg/kg/day | NOAEL (rat [7]; [25]): ≥ 75 mg/kg/day | LEL (mouse [8]): 3 mg/kg/day | LOAEL (mouse [8]): > 300 mg/kg/day | NEL (mouse [8]): < 3 mg/kg/day | NOAEL (mouse [8]): ≥ 300 mg/kg/day | LOAEL (rabbit [9]): > 150 mg/kg/day | NEL (rabbit [9]): 50 mg/kg/day | NOAEL (rabbit [9]): ≥ 150 mg/kg/day

CC(C)(C)c1ccc(CSc2cnn(C(C)(C)C)c(=O)c2Cl)cc1 [Pyridaben]
LEL (rat [10]; [26]): 6.31 mg/kg/day | LOAEL (rat [10]; [26]): > 6.31 mg/kg/day | NEL (rat [10]; [26]): 2.2 mg/kg/day | NOAEL (rat [10]; [26]): ≥ 6.31 mg/kg/day | LOAEL (rat [10]; [27]): 6.31 mg/kg/day | NOAEL (rat [10]; [27]): 2.2 mg/kg/day | LEL (rat [10]; group: parental, systemic / organ weight / ovary / absolute): 2.41 mg/kg/day | NEL (rat [10]; group: parental, systemic / organ weight / ovary / absolute + systemic / in life observation / body weight / body weight + systemic / in life observation / …): 0.94 mg/kg/day | LEL (rat [11]; [28]): 27.7 mg/kg/day | LOAEL (rat [11]; [28]): > 27.7 mg/kg/day | NEL (rat [11]; [28]): 12.8 mg/kg/day | NOAEL (rat [11]; [28]): ≥ 27.7 mg/kg/day | LEL (rat [11]; [29]): 2.3 mg/kg/day | NEL (rat [11]; [29]): < 2.3 mg/kg/day | LOAEL (rat [11]; group: systemic, systemic / in life observation / body weight / body weight gain + systemic / in life observation / food consumption / food efficiency): 5.53 mg/kg/day | NOAEL (rat [11]; group: systemic, systemic / in life observation / body weight / body weight gain + systemic / in life observation / food consumption / food efficiency + …): 2.64 mg/kg/day | LOAEL (rat [12]; [30]): 5 mg/kg/day | NEL (rat [12]; [30]): 0.4 mg/kg/day | LEL (rat [12]; systemic / urinalysis / volume / volume): 1.13 mg/kg/day | LEL (mouse [13]; [31]): 4.07 mg/kg/day | NEL (mouse [13]; [31]): < 4.07 mg/kg/day | LOAEL (mouse [13]; systemic / in life observation / body weight / body weight gain): 13 mg/kg/day | NOAEL (mouse [13]; systemic / in life observation / body weight / body weight gain + systemic / clinical chemistry / alkaline phosphatase (alp/alk) / alkaline …): 4.07 mg/kg/day | LEL (rabbit [14]; [32]): 450 mg/kg/day | LOAEL (rabbit [14]; [32]): 450 mg/kg/day | NEL (rabbit [14]; [32]): 170 mg/kg/day | NOAEL (rabbit [14]; [32]): 170 mg/kg/day | LEL (rabbit [14]; [33]): 70 mg/kg/day | LOAEL (rabbit [14]; [33]): 70 mg/kg/day | NEL (rabbit [14]; [33]): < 70 mg/kg/day | NOAEL (rabbit [14]; [33]): < 70 mg/kg/day | LEL (rat [15]; [34]): 30 mg/kg/day | LOAEL (rat [15]; [34]): 30 mg/kg/day | NEL (rat [15]; [34]): 13 mg/kg/day | NOAEL (rat [15]; [34]): 13 mg/kg/day | LEL (rat [15]; [35]): 13 mg/kg/day | LOAEL (rat [15]; [35]): 13 mg/kg/day | NEL (rat [15]; [36]): 5.7 mg/kg/day | NOAEL (rat [15]; [36]): 5.7 mg/kg/day | LOAEL (dog [16]; [37]): 4 mg/kg/day | NOAEL (dog [16]; [37]): 1 mg/kg/day | LEL (dog [16]; [38]): 0.5 mg/kg/day | NEL (dog [16]; [38]): < 0.5 mg/kg/day | LEL (dog [17]): 1 mg/kg/day | LOAEL (dog [17]): 1 mg/kg/day | NEL (dog [17]): < 1 mg/kg/day | NOAEL (dog [17]): < 1 mg/kg/day | LEL (dog [18]): 0.5 mg/kg/day | LOAEL (dog [18]): 0.5 mg/kg/day | NEL (dog [18]): < 0.5 mg/kg/day | NOAEL (dog [18]): < 0.5 mg/kg/day | LOAEL (mouse [19]; [39]): 8.88 mg/kg/day | NOAEL (mouse [19]; [39]): 2.78 mg/kg/day | LEL (mouse [19]; [40]): 0.26 mg/kg/day | NEL (mouse [19]; [40]): < 0.26 mg/kg/day
